Article PMC5561212, “In Vitro Micropatterned Human Pluripotent Stem Cell Test (µP-hPST) for Morphometric-Based Teratogen Screening” (Scientific Reports, 2017)
In brackets after ≈: the same amount, converted by molar mass. Entries after “also recorded” stand apart in the source; their conditions may differ. Read-outs that look alike come from different tables or passages of the source.

Tests used:
[1] = system: human embryonic cell line H9; assay: Cytotoxicity assay (MTS), embryonic cytotoxicity; type: cell-based; settings: H9 cells, 3 days, 25% inhibitory concentration
Description: (§1) A set of 30 compounds of known teratogenicity was selected to establish and validate the µP-hPST (Table 1). The compounds include equal number of non-teratogens and teratogens, and differ in chemical property and therapeutic usage. Before tested in the µP-hPSC colonies, the cytotoxicity profile of each compound was acquired. Two cell lines, hPSC line H9 and adult human dermal fibroblast line aHDF, were tested to represent embryonic cytotoxicity and general cytotoxicity of the compound respectively (Supplementary Figs S1, S2). The IC25 values, which were the 25% inhibitory concentrations, were calculated as the highest non-cytotoxic concentrations of the compound (Table 2, Fig. 1).
(§2) Human embryonic cell line H9 (WiCell Research Institute, Inc) and adult human dermal fibroblast (aHDF, Lonza) were cultured as previously described. Briefly, H9 cells were cultured in tissue culture plates coated with Matrigel^TM (354277, BD Biosciences) in mTeSR^TM1 medium (05850, StemCell^TM Technologies). Dispase (07923, StemCell^TM Technologies) treatment and mechanical scraping were applied during normal subculture. The aHDF cells was cultured in DMEM medium (10569-010, Gibco), supplemented with 10% FBS (SV30160.03, Thermo Scientific Hyclone) and 1% Pen-Strep (09367-34, Nacalai Tesque). Cells were subcultured every 5–6 days using 0.25% Trypsion-EDTA (25200-114, Gibco) to detach the cells.
(§3) The adverse effect of test compounds on cell proliferation and viability was detected using CellTiter 96® AQueous One Solution Cell Proliferation Assay (MTS, G3580, Promega). 10,000 H9 cells or 500 aHDF cells were seeded in 96-well tissue culture plates. For H9 cells, Matrigel^TM was coated before seeding. For each compound, 8 concentrations from serial 5-fold dilutions were tested besides the vehicle controls. Cells were cultured for 3 days with medium half change every day before cell viability was measured. Each drug was tested in three independent runs and its IC25 values (inhibitory concentrations which can cause 25% of reduction in cell number) were acquired by logistic regression using OriginPro 9.

[2] = system: adult human dermal fibroblasts (aHDF); assay: Cytotoxicity assay (MTS), general cytotoxicity; type: cell-based; settings: aHDF cells, 3 days, 25% inhibitory concentration
Description: as §1, §2, §3

[3] = cited from earlier work
hPSC = system: hPSC; parameters: method as in PMID 24123775; settings: cited from earlier work
[4] = cited from earlier work; for In vivo teratogenicity: Table 1, known teratogenicity; for In vivo teratogenicity (in words): Supplementary Tables S2, S3
[5] = system: µP-hPSC colonies (H9) under mesoendoderm induction; assay: µP-hPST: mesoendoderm pattern disruption in µP-hPSC colonies and two-step teratogen classification; settings: for Teratogenicity in µP-hPST / Teratogenicity in µP-hPST (in words): two-step classification rule; for Mesoendoderm pattern disruption seen in T fluorescent images: 3 days of compound exposure, in words
[6] = human plasma, ref U.S. FDA website, EMA website or published journals (Supplementary Table S1)

SMILES	IC25H9 [1] [µg/mL]	IC25aHDF [2] [µg/mL]	Cmax [3, 6] [ng/mL]	Teratogenicity in other in vitro assays (hPSC)	In vivo teratogenicity [4]	Teratogenicity in µP-hPST [5]	In vivo teratogenicity (in words) [4]	Teratogenicity in µP-hPST (in words) [5]	Classification in the Targeted Biomarker Assay (in words) (hPSC)	Mesoendoderm pattern disruption seen in T fluorescent images [5]	Defects caused in newborns [4]	Anomalies known to be induced [4]	Cmax ([3]; compounds tested previously) [ng/mL]
CC(=O)Nc1ccc(O)cc1 [Acetaminophen]	171 (≈ 1130 µM)	40 (≈ 265 µM)	24000	NON[6]	NON	–	–	–	–	–	–	–	–
Nc1nc2c(ncn2COCCO)c(=O)[nH]1 [Acyclovir]	267 (≈ 1190 µM)	285 (≈ 1270 µM)	5650	–	–	–	–	–	–	–	–	–	–
CC1(C)S[C@@H]2[C@H](NC(=O)[C@H](N)c3ccc(O)cc3)C(=O)N2[C@H]1C(=O)O [Amoxicillin]	>1000	>1000	14400	NON[6]	NON	NON	Non-teratogen	–	–	–	–	–	–
O=C1O[C@H]([C@@H](O)CO)C(O)=C1O [Ascorbic acid]	105 (≈ 596 µM)	63 (≈ 358 µM)	156000	–	–	NON	–	–	–	–	–	–	–
COc1ccccc1Oc1c(NS(=O)(=O)c2ccc(C(C)(C)C)cc2)nc(-c2ncccn2)nc1OCCO [Bosentan]	43.8 (≈ 79.4 µM)	19.9 (≈ 36.1 µM)	8170	NON[6]	TER	TER	Teratogen	correctly classify	misclassified	–	–	–	–
CS(=O)(=O)OCCCCOS(C)(=O)=O [Busulfan]	0.5 (≈ 2.03 µM)	19.2 (≈ 78 µM)	1220	TER[6]	TER	TER	Teratogen	–	–	much smaller and concentrated mesoendoderm patterns were observed	–	–	–
Cn1c(=O)c2c(ncn2C)n(C)c1=O [Caffeine]	85.4 (≈ 440 µM)	129 (≈ 664 µM)	10000	–	–	–	–	–	–	–	–	–	–
NC(=O)N1c2ccccc2C=Cc2ccccc21 [Carbamazepine]	21 (≈ 88.9 µM)	28 (≈ 119 µM)	11000	TER[6]	TER	TER	Teratogen	detect the teratogenic effects	–	decrease both cell differentiation and migration	neural tube defects, cardiovascular and urinary tract anomalies, and cleft palate	–	–
CN(C)CCOC(c1ccccc1)c1ccccc1 [Diphenhydramine]	2.4 (≈ 9.4 µM)	31.4 (≈ 123 µM)	–	–	–	NON	–	–	–	–	–	–	–
O=C1NC(=O)C(c2ccccc2)(c2ccccc2)N1 [Diphenylhydantoin]	56 (≈ 222 µM)	140 (≈ 555 µM)	20000	NON[6]	TER	TER	Teratogen	correctly classify; also recorded: detect the teratogenic effects	misclassified	slow down or prevent mesoendoderm cell migration	–	orofacial, limb, cardiovascular and neurobehavioral anomalies	–
CN(C)CCOC(C)(c1ccccc1)c1ccccn1 (stereo not shown) [Doxylamine]	87 (≈ 322 µM)	45 (≈ 166 µM)	120	–	–	NON	–	–	–	–	–	–	–
Nc1nc2ncc(CNc3ccc(C(=O)N[C@@H](CCC(=O)O)C(=O)O)cc3)nc2c(=O)[nH]1 [Folic acid]	888 (≈ 2010 µM)	894 (≈ 2030 µM)	270	–	–	NON	–	–	–	–	–	–	–
COc1cc2ncnc(Nc3ccc(F)c(Cl)c3)c2cc1OCCCN1CCOCC1 [Gefitinib]	4.6 (≈ 10.3 µM)	1.66 (≈ 3.71 µM)	930	–	–	TER	–	–	–	–	–	–	–
Cc1ccc(NC(=O)c2ccc(CN3CCN(C)CC3)cc2)cc1Nc1nccc(-c2cccnc2)n1 [Imatinib]	19.5 (≈ 39.5 µM)	2.7 (≈ 5.47 µM)	1560	–	–	–	–	–	–	–	–	–	–
NNC(=O)c1ccncc1 [Isoniazid]	370 (≈ 2700 µM)	488 (≈ 3560 µM)	3090	NON[6]	NON	NON	–	–	–	–	–	–	–
CCOC(=O)N1CCC(=C2c3ccc(Cl)cc3CCc3cccnc32)CC1 [Loratadine]	24 (≈ 62.7 µM)	3.2 (≈ 8.36 µM)	–	NON[6]	NON	–	–	–	–	–	–	–	–
CC[C@H](C)C(=O)O[C@H]1C[C@@H](C)C=C2C=C[C@H](C)[C@H](CC[C@@H]3C[C@@H](O)CC(=O)O3)[C@H]21 [Lovastatin]	–	0.68 (≈ 1.68 µM)	10	NON[6]	TER	TER	Teratogen	correctly classify	misclassified	promote cell migration	–	–	–
Cn1cc[nH]c1=S [Methimazole]	252 (≈ 2210 µM)	>1000	–	–	TER	TER	Teratogen	–	–	promote mesoendoderm differentiation while decrease collective cell migration	–	–	–
CCN(CC)CCNC(=O)c1cc(Cl)c(N)cc1OC [Metoclopramide]	162 (≈ 540 µM)	154 (≈ 514 µM)	40	NON[6]	NON	NON	Non-teratogen	–	–	–	–	–	–
CC1(C)S[C@@H]2[C@H](NC(=O)Cc3ccccc3)C(=O)N2[C@H]1C(=O)O [Penicillin G]	–	–	–	–	–	–	–	Non-teratogen	–	–	–	–	400000
N[C@@H](CC(=O)N1CCn2c(nnc2C(F)(F)F)C1)Cc1cc(F)c(F)cc1F [Sitagliptin]	359 (≈ 881 µM)	77.1 (≈ 189 µM)	390	NON[6]	NON	NON	–	–	–	–	–	–	–
